Data published in patent US11542304B2, “Multimeric bicyclic peptide ligands” (BicycleTx Limited, priority 2018, dated 2023).

Legend:
CD137 [1] = molecular target: T1, CD137 (Homo sapiens, UniProt Q07011); assay: CD137 reporter cell activity washout assay; assay type: cell-based; design: host or cells: Jurkat cells; settings: 10 nM, exposure 30, 60 or 120 minutes, total 6 hours; FIG. 13
Method: Jurkat cells engineered to overexpress CD137 and express a luciferase gene under the NF-κB promoter were purchased from Promega. The reporter cells were incubated with 10 nM of CD137 agonists for the indicated times at 37° C. in RPMI1640 media with 1% FBS. After either 30, 60, or 120 minutes, cells were washed in an excess of culture media and resuspended in 75 μL of fresh media. A no washout condition was also included. All washout conditions were performed in duplicate. Cells then continued to incubate for a total of 6 hours (an additional 5.5, 5, or 4 hours respective to exposure times). After incubation, 75 μL of Bio-Glo reagent (Promega) was added to each well and allowed to equilibrate for 10 minutes at room temperature. Luminescence was read on the Clariostar plate reader (BMG LabTech). Fold induction was calculated by dividing the luminescence signal by background wells (reporter cells with no agonist added). The percent of the maximum fold induction was calculated by dividing the fold induction of the washout time by the fold induction of the no washout condition and multiplying by 100.

[2] = system: Pan T-cells (isolated from human PBMCs); assay: T-cell cytokine release assay; assay type: cell-based; settings: anti-CD3 stimulated T cells, 48 hours; FIG. 14
Method: Healthy human buffy coat was purchased from the Sylvan N. Goldman Oklahoma Blood Institute and shipped fresh. Peripheral blood mononuclear cells (PBMCs) were isolated by Ficoll density gradient centrifugation. Red blood cells were lysed with ACK (Ammonium-Chloride-Potassium) lysis buffer. Pan T-cells were then isolated from total PBMCs using negative magnetic bead selection (Miltenyi MACS human Pan-T cell isolation kit). Pan T-cells were then plated on anti-CD3 coated 96-well plates (0.5 μg/mL) in culture media (RPMI1640 with 10% FBS) plus or minus compounds. Supernatant from cultures was collected after 24 and 48 hours. Cytokine [i.e., interleukin-2 (IL-2), interferon gamma (IFNγ)] release in supernatant was measured by HTRF assay (CisBio) according to the kit's instructions. HTRF assay plates were read on a Clariostar plate reader (BMG Labtech) at 665 nm and 620 nm. Data was analyzed and extrapolated to a standard curve according to the HTRF kit instruction in Prism and Excel. Cytokine release fold change was calculated by dividing the pg/mL of cytokine detected by background cytokine released (CD3 stimulation alone). Data was graphed in Prism as the mean of replicates with standard deviation error bars.

CD137 [3] = molecular target: T1, CD137; assay: CD137 Promega reporter cell activity assay (NF-κB luciferase in Jurkat cells)
Method: CD137 binding multimers were evaluated for CD137 using a Reporter cell activity assay that uses NF-κB luciferase luminescence as a read-out of CD137 activation in Jurkat cells. […] Samples were diluted at concentration expected to give the maximum fold induction and then titrated down in 1/3 dilution series or 1/10 dilution series in a sterile 96 well-plate. […] 50 μl cells were added per well to white cell culture plates.
Cells were co-incubated together with agonists for 6 h at 37° C., 5% CO2. After 6 h Bio-Glo™ was thawed and the assay developed at room-temperature. 75 ul Bio-Glo™ was added per well and incubated for 5-10 min. Luciferase signal was read on a Pherastar plate-reader using MARS program. Data was analysed by transforming the data to x=log (X), then plotting log (agonist) vs. response variable slope (4 parameters) to calculate EC50 values.

MC38 syngeneic tumors = assay: In vivo efficacy in MC38 syngeneic tumors in C57BL/6J B-h4-1BB humanized mice
Method: The MC38 murine colon carcinoma cell line was purchased from Shunran Shanghai Biological Technology Co., Ltd. The cells will be maintained in vitro as monolayer culture in Dulbecco's Modified Eagle's medium (DMEM) supplemented with 10% heat inactivated fetal calf serum, 100 U/mL penicillin and 100 μg/mL streptomycin at 37° C. in an atmosphere of 5% CO2. The tumor cells will be routinely subcultured twice weekly by trypsin-EDTA treatment. Cells growing in an exponential growth phase will be harvested and counted for tumor inoculation. 6-8 week old female C57BL/6J B-h4-1BB humanized mice were subcutaneously injected (in the flank) with MC38 tumor cells (5×10^5) with 0.1 mL PBS for tumor development. Tumor-bearing animals were randomly enrolled into six study groups when the mean tumor size reached approximately 113 mm^3 (Study 1) or 107 mm^3 (Study 2). The test and positive control articles were administrated to the tumor-bearing mice according to predetermined regimens as shown below.
Test articles were formulated in aqueous vehicle (25 mM Histidine, 10% sucrose pH=7) and administered intravenously or intraperitoneally. CD137 monoclonal antibody agonist was administered by intraperitoneal injection in 0.9% saline.
Tumor volume was measured three times a week in two dimensions using a caliper, and the volume was expressed in mm3 using the formula: V=0.5a×b2 where a and b were the long and short diameters of the tumor, respectively. Results are represented by mean and the standard deviation (Mean±SD).
In study 2, mice were sacrificed 21 days after treatment initiation and tumors were harvested for T-cell analysis by flow cytometry. Tumor were cut into small pieces and filtered through a 70 micrometer filter. Lymphocytes were isolated using Histopaque 1083 and resuspended in RPMI 1640 supplemented with 10% fetal bovine serum. Lymphocytes were stained with a cell viability dye (Zombie NIR, Biolegend, #423106) and a panel of antibodies including anti-mouse CD45 (Biolegend, #103138), anti-mouse CD3 (Biolegend, #100328), anti-mouse CD4 (Biolegend, #100438), anti-mouse CD8 (Biolegend, #100759). Stained cells were analysed by Attune N×T Flow Cytometer. T-cell results are expressed as % of CD3+ cells among CD45+ cells. CD8+ T-cell results are expressed as % of CD8+ cells among CD45+CD3+ cells. CD4+ T-cell results are expressed as % of CD4+ cells among CD45+CD3+ cells. Results are represented by mean and the standard deviation (Mean±SD) and the individual values.
Statistical analysis: Data was analyzed using 2way ANOVA or ordinary One-way ANOVA with Dunnett's test for multiple comparisons, and P<0.05 was considered to be statistically significant. Both statistical analysis and biological observations are taken into consideration. ***p<0.001, **p<0.01, *p<0.05.

T1 sequence (Q07011 24-255): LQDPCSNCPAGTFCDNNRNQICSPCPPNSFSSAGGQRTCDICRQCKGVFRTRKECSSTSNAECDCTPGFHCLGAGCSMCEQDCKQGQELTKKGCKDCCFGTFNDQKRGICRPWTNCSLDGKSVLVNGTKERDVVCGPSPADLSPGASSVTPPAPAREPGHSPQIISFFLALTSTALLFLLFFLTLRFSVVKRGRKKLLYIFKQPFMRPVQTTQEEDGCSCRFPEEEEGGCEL

CCCC[C@@H]1NC(=O)[C@H](Cc2ccc(O)cc2)NC(=O)[C@@H]2CCCN2C(=O)[C@H](CC(=O)O)NC(=O)[C@H](C)NC(=O)[C@H](Cc2ccccc2)NC(=O)[C@@H]2CSCCC(=O)N3CN(CN(C3)C(=O)CCSC[C@@H](C(=O)N[C@@H](C)C(N)=O)NC1=O)C(=O)CCSC[C@H](NC(C)=O)C(=O)N[C@@H](CC(C)(C)C)C(=O)N1CCC[C@H]1C(=O)N[C@@H](CCCCNC(=O)CCc1cn(CCOCCOCCOCCOCCOCCOCCOCCOCCOCCOCCOCCOCCOCCOCCOCCOCCOCCOCCOCCOCCOCCOCCOCCNC(=O)CCOCC(COCCC(=O)NCCOCCOCCOCCOCCOCCOCCOCCOCCOCCOCCOCCOCCOCCOCCOCCOCCOCCOCCOCCOCCOCCOCCOCCn3cc(CCC(=O)NCCCC[C@@H]4NC(=O)[C@@H]5CCCN5C(=O)[C@H](CC(C)(C)C)NC(=O)[C@@H](NC(C)=O)CSCCC(=O)N5CN6CN(C5)C(=O)CCSC[C@H](NC(=O)[C@H](Cc5ccc(O)cc5)NC(=O)[C@@H]5CCCN5C(=O)[C@@H](C)NC4=O)C(=O)N[C@@H](Cc4ccccc4)C(=O)N[C@@H](C)C(=O)N[C@@H](CC(=O)O)C(=O)N4CCC[C@H]4C(=O)N[C@@H](Cc4ccc(O)cc4)C(=O)N[C@@H](CCCC)C(=O)N[C@H](C(=O)N[C@@H](C)C(N)=O)CSCCC6=O)nn3)(COCCC(=O)NCCOCCOCCOCCOCCOCCOCCOCCOCCOCCOCCOCCOCCOCCOCCOCCOCCOCCOCCOCCOCCOCCOCCOCCn3cc(CCC(=O)NCCCC[C@@H]4NC(=O)[C@@H]5CCCN5C(=O)[C@H](CC(C)(C)C)NC(=O)[C@@H](NC(C)=O)CSCCC(=O)N5CN6CN(C5)C(=O)CCSC[C@H](NC(=O)[C@H](Cc5ccc(O)cc5)NC(=O)[C@@H]5CCCN5C(=O)[C@@H](C)NC4=O)C(=O)N[C@@H](Cc4ccccc4)C(=O)N[C@@H](C)C(=O)N[C@@H](CC(=O)O)C(=O)N4CCC[C@H]4C(=O)N[C@@H](Cc4ccc(O)cc4)C(=O)N[C@@H](CCCC)C(=O)N[C@H](C(=O)N[C@@H](C)C(N)=O)CSCCC6=O)nn3)COCCC(=O)NCCOCCOCCOCCOCCOCCOCCOCCOCCOCCOCCOCCOCCOCCOCCOCCOCCOCCOCCOCCOCCOCCOCCOCCn3cc(CCC(=O)NCCCC[C@@H]4NC(=O)[C@@H]5CCCN5C(=O)[C@H](CC(C)(C)C)NC(=O)[C@@H](NC(C)=O)CSCCC(=O)N5CN6CN(C5)C(=O)CCSC[C@H](NC(=O)[C@H](Cc5ccc(O)cc5)NC(=O)[C@@H]5CCCN5C(=O)[C@@H](C)NC4=O)C(=O)N[C@@H](Cc4ccccc4)C(=O)N[C@@H](C)C(=O)N[C@@H](CC(=O)O)C(=O)N4CCC[C@H]4C(=O)N[C@@H](Cc4ccc(O)cc4)C(=O)N[C@@H](CCCC)C(=O)N[C@H](C(=O)N[C@@H](C)C(N)=O)CSCCC6=O)nn3)nn1)C(=O)N[C@H](C)C(=O)N1CCC[C@H]1C(=O)N[C@@H](Cc1ccc(O)cc1)C(=O)N2 [BCY8945]
cell activity after washout (CD137 [1]): maintains cell activity after washout
pro-inflammatory cytokine (IL-2, IFNγ) secretion by T-cells [2]: secrete pro-inflammatory cytokines
Average Fold EC50 Improvement relative to BCY7845 (CD137 [3]): 0.13
Average Relative Fold Induction relative to BCY7845 (CD137 [3]; Average fold induction for BCY7845 = 6.3): 1.23
CD137 agonism / activation in reporter cells (in words) (CD137 [3]; FIGS. 1 to 3 and 15): activates CD137 on the surface of Jurkat reporter cells
anti-tumour activity (tumor volume), Study 2 (MC38 syngeneic tumors; 30 mg/kg QD × 20, FIG. 8): elicits anti-tumour activity
T-cell percentage in the tumor tissue (% CD3+ among CD45+) (MC38 syngeneic tumors; Study 2, 21 days of treatment, compared to CD137 monoclonal antibody agonist, FIG. 9): elicits a range of increase in T-cell and CD8+ T-cell percentage
CD8+ T-cell percentage in the tumor tissue (% CD8+ among CD45+CD3+) (MC38 syngeneic tumors; Study 2, 21 days of treatment, compared to CD137 monoclonal antibody agonist, FIG. 10): elicits a range of increase in T-cell and CD8+ T-cell percentage
CD4+ T-cell percentage in the tumor tissue (% CD4+ among CD45+CD3+) (MC38 syngeneic tumors; Study 2, 21 days of treatment, compared to CD137 monoclonal antibody agonist, FIG. 11): elicits a range of decease in T-cell percentage
